Literature values as cited in PubChem BioAssay AID1259409 (Chemical Carcinogenesis Research Information System (CCRIS), 2018).

Test system: rodent chemically induced tumor inhibition, incidence and multiplicity
Experiment: CCRIS tumor inhibitor studies
Settings: for tumour outcome (control, treated, inhibition, significance): Promoter: NONE USED

In the case of `O=[Se](O)O`, the “tumour outcome (control, treated, inhibition, significance)” value (Carcinogen: N,N-DIETHYLNITROSAMINE, 55-18-5, Dose [Inhibitor]: 0.1 MG 5/WK STARTING 10-15 D BEFORE CARCINOGEN TREATMENT AND CONTINUING FOR DURATION OF STUDY (STUDY DURATION: 26 WK), Route [Inhibitor]: INTRAPERITONEAL, Species: RAT, Strain/Sex: BDIV AND WISTAR/MALE, Target Tissue: Type of Lesion: LIVER: TUMOR, Dose [Carcinogen]: 100 MG/L IN DRINKING WATER DAILY FOR 5 MO) is given as 18/19 (95%), 14/17 (82%), 14%, not calculated, the “tumour outcome (control, treated, inhibition, significance)” value (Carcinogen: N,N-DIETHYLNITROSAMINE, 55-18-5, Dose [Inhibitor]: 1 MG/L IN DRINKING WATER DAILY STARTING 10-15 D BEFORE CARCINOGEN TREATMENT AND CONTINUING FOR DURATION OF STUDY (STUDY, Route [Inhibitor]: ORAL, Species: RAT, Strain/Sex: BDIV AND WISTAR/MALE, Target Tissue: Type of Lesion: LIVER: TUMOR, Dose [Carcinogen]: 80 MG/KG BW IN 0.2 ML 0.9% SALINE 1/WK FOR 10 WK) is given as 17/20 (85%), 15/20 (75%), 12%, not calculated and the “tumour outcome (control, treated, inhibition, significance)” value (Carcinogen: N,N-DIETHYLNITROSAMINE, 55-18-5, Dose [Inhibitor]: 5 MG/L IN DRINKING WATER DAILY STARTING 10-15 D BEFORE CARCINOGEN TREATMENT AND CONTINUING FOR DURATION OF STUDY (STUDY, Route [Inhibitor]: ORAL, Species: RAT, Strain/Sex: BDIV AND WISTAR/MALE, Target Tissue: Type of Lesion: LIVER: TUMOR, Dose [Carcinogen]: 80 MG/KG BW IN 0.2 ML 0.9% SALINE 1/WK FOR 10 WK) is given as 15/16 (94%), 17/18 (94%), 0%, not calculated. The “tumour outcome (control, treated, inhibition, significance)” value (Carcinogen: N,N-DIETHYLNITROSAMINE, 55-18-5, Dose [Inhibitor]: 10 MG/L IN DRINKING WATER DAILY STARTING 10-15 D BEFORE CARCINOGEN TREATMENT AND CONTINUING FOR DURATION OF STUDY (STUDY, Route [Inhibitor]: ORAL, Species: RAT, Strain/Sex: BDIV AND WISTAR/MALE, Target Tissue: Type of Lesion: LIVER: TUMOR, Dose [Carcinogen]: 80 MG/KG BW IN 0.2 ML 0.9% SALINE 1/WK FOR 10 WK) was 15/16 (94%), 9/13 (69%), 27%, not calculated, the “tumour outcome (control, treated, inhibition, significance)” value (Carcinogen: N,N-DIETHYLNITROSAMINE, 55-18-5, Dose [Inhibitor]: 10 MG/L IN DRINKING WATER DAILY STARTING 10-15 D BEFORE CARCINOGEN TREATMENT AND CONTINUING FOR DURATION OF STUDY (STUDY, Route [Inhibitor]: ORAL, Species: RAT, Strain/Sex: BDIV AND WISTAR/MALE, Target Tissue: Type of Lesion: LIVER: TUMOR, Dose [Carcinogen]: 100 MG/L IN DRINKING WATER DAILY FOR 5 MO) was 18/19 (95%), 15/16 (94%), 1%, not calculated and the “tumour outcome (control, treated, inhibition, significance)” value (Carcinogen: N-METHYL-N'-NITRO-N-NITROSOGUANIDINE, 70-25-7, Dose [Inhibitor]: 10 MG/L IN DRINKING WATER DAILY STARTING 15 D BEFORE CARCINOGEN TREATMENT AND CONTINUING FOR DURATION OF STUDY (STUDY DU, Route [Inhibitor]: ORAL, Species: RAT, Strain/Sex: BDIV AND WISTAR/MALE, Target Tissue: Type of Lesion: STOMACH: TUMORS, Dose [Carcinogen]: 250 MG/KG BW PULSED DOSE IN 2 ML CORN OIL ONCE) was 18/25 (72%), 12/35 (75%), -4%, not calculated. The outcome (Carcinogen: N-METHYL-N-NITRO-N'-NITROSO-GUANIDINE [70-25-7], Dose [Inhibitor]: 0, 2, 4 MG/L FOR 1 WK PRIOR TO CARCINOGEN (STUDY DURATION: 43 WKS), Dose [Inhibitor]: 0, 2, 4 MG/L FOR 1 WK PRIOR TO CARCINOGEN (STUDY DURATION: 43 WKS), Route [Inhibitor]: DRINKING WATER, Species: RAT, Strain/Sex: WISTAR/MALE, Target Tissue: Type of Lesion: LEIOMYOMA, Dose [Carcinogen]: 20 MG/KG BW DAILY FOR 10 D) was 23%; 47%, -104%; 43%, -87%, the “tumour outcome (control, treated, inhibition, significance)” value (Carcinogen: N-METHYL-N-NITROSOUREA, 684-9-35, Dose [Inhibitor]: 4 PPM IN DRINKING WATER DAILY FOR 10 MO STARTING SIMULTANEOUSLY WITH CARCINOGEN TREATMENT (STUDY DURATION: 10 MO), Route [Inhibitor]: ORAL, Species: RAT, Strain/Sex: WE/MALE, Target Tissue: Type of Lesion: BRAIN AND SPINAL CORD: NEOPLASM, Dose [Carcinogen]: 20 MG/KG BW ONCE EVERY 4 WK FOR 40 WK) was 6/15 (40%), 9/16 (56%), -40%, not significant and the “tumour outcome (control, treated, inhibition, significance)” value (Carcinogen: N-METHYL-N-NITROSOUREA, 684-9-35, Dose [Inhibitor]: 4 PPM IN DRINKING WATER DAILY FOR 10 MO STARTING SIMULTANEOUSLY WITH CARCINOGEN TREATMENT (STUDY DURATION: 10 MO), Route [Inhibitor]: ORAL, Species: RAT, Strain/Sex: WE/MALE, Target Tissue: Type of Lesion: FORESTOMACH: NEOPLASM, Dose [Carcinogen]: 20 MG/KG BW ONCE EVERY 4 WK FOR 40 WK) was 14/15 (93%), 16/16 (100%), -8%, not significant. For the same compound, the “tumour outcome (control, treated, inhibition, significance)” value (Carcinogen: N-METHYL-N-NITROSOUREA, 684-9-35, Dose [Inhibitor]: 4 PPM IN DRINKING WATER DAILY FOR 10 MO STARTING SIMULTANEOUSLY WITH CARCINOGEN TREATMENT (STUDY DURATION: 10 MO), Route [Inhibitor]: ORAL, Species: RAT, Strain/Sex: WE/MALE, Target Tissue: Type of Lesion: MAMMARY GLAND: NEOPLASM, Dose [Carcinogen]: 20 MG/KG BW ONCE EVERY 4 WK FOR 40 WK) was 3/15 (20%), 4/16 (25%), -25%, not significant, the “tumour outcome (control, treated, inhibition, significance)” value (Carcinogen: N-METHYL-N-NITROSOUREA, 684-9-35, Dose [Inhibitor]: 4 PPM IN DRINKING WATER DAILY FOR 10 MO STARTING SIMULTANEOUSLY WITH CARCINOGEN TREATMENT (STUDY DURATION: 10 MO), Route [Inhibitor]: ORAL, Species: RAT, Strain/Sex: WE/MALE, Target Tissue: Type of Lesion: PERIPHERAL NERVES: NEOPLASM, Dose [Carcinogen]: 20 MG/KG BW ONCE EVERY 4 WK FOR 40 WK) was 3/15 (20%), 8/16 (50%), -150%, not significant and the “tumour outcome (control, treated, inhibition, significance)” value (Carcinogen: N-METHYL-N-NITROSOUREA, 684-93-5, Dose [Inhibitor]: 1 MG IN DIET DAILY STARTING AT AGE 5 WK 2 WK PRIOR TO FIRST CARCINOGEN TREATMENT AND CONTINUING FOR DURATION OF STUDY (S, Route [Inhibitor]: ORAL, Species: HAMSTER, Strain/Sex: SYRIAN/MALE, Target Tissue: Type of Lesion: TRACHEA: CARCINOMA, Dose [Carcinogen]: 0.5% SOLUTION (PH 5) 1/WK FOR 12 WK) was 9/34 (26%), 8/33 (24%), 8%, not significant. The “tumour outcome (control, treated, inhibition, significance)” value (Carcinogen: N-METHYL-N-NITROSOUREA, 684-93-5, Dose [Inhibitor]: 1 MG IN DIET DAILY STARTING AT AGE 5 WK 2 WK PRIOR TO FIRST CARCINOGEN TREATMENT AND CONTINUING FOR DURATION OF STUDY (S, Route [Inhibitor]: ORAL, Species: HAMSTER, Strain/Sex: SYRIAN/MALE, Target Tissue: Type of Lesion: TRACHEA: NEOPLASM, Dose [Carcinogen]: 0.5% SOLUTION (PH 5) 1/WK FOR 12 WK) was 11/34 (32%), 9/33 (27%), 16%, not significant, the “tumour outcome (control, treated, inhibition, significance)” value (Carcinogen: N-METHYL-N-NITROSOUREA, 684-93-5, Dose [Inhibitor]: 1 MG/KG IN DIET DAILY STARTING 7 D AFTER CARCINOGEN TREATMENT AND CONTINUING FORDURATION OF STUDY (STUDY DURATION: 120 D, Route [Inhibitor]: ORAL, Species: RAT, Strain/Sex: SPRAGUE-DAWLEY/FEMALE, Target Tissue: Type of Lesion: MAMMARY GLAND: ADENOCARCINOMA, Dose [Carcinogen]: 35 MG/KG BW IN 0.9% SALINE ONCE AT 50 D OF AGE) was 68%, 68%, 0%, not calculated and the “tumour outcome (control, treated, inhibition, significance)” value (Carcinogen: N-METHYL-N-NITROSOUREA, 684-93-5, Dose [Inhibitor]: 5 MG IN DIET DAILY STARTING AT AGE 5 WK 2 WK PRIOR TO FIRST CARCINOGEN TREATMENT AND CONTINUING FOR DURATION OF STUDY (S, Route [Inhibitor]: ORAL, Species: HAMSTER, Strain/Sex: SYRIAN/MALE, Target Tissue: Type of Lesion: TRACHEA: CARCINOMA, Dose [Carcinogen]: 0.5% SOLUTION (PH 5) 1/WK FOR 12 WK) was 9/34 (26%), 10/31 (32%), -23%, not significant.
